Values after ≈ are worked out from the molar mass of the structure shown. Where a name gives a salt, the structure may show the parent alone. Read-outs that look alike come from different tables or passages of the source.

One series deals with Streptococcus pneumoniae. In words: In vitro antibacterial activity, agar plate dilution method. It counts as cell-based. Conditions: read-out: Minimum Concentration to Inhibit Growth of the Employed Bacteria B. As for the experimental part:
(§1) To assess the antibacterial activities of the compounds, the minimum concentrations (μg/ml) of the compounds to inhibit growth of various pathogenic bacteria were determined by agar plate dilution method. In this Table, the employed bacteria A, B, and C were as follow: • A: Staphylococcus aureus • B: Streptococcus pneumoniae • C: Haemophilis influenzae strain 9787 (a strain producing β-lactamase)

The next series relates to Staphylococcus aureus. The series is described as above. It counts as cell-based. The conditions noted are these: read-out: Minimum Concentration to Inhibit Growth of the Employed Bacteria A. The protocol:
as §1

Series [1] relates to Haemophilis influenzae strain 9787 (a strain producing β-lactamase). The series is described as above. It counts as cell-based. The conditions noted are these: read-out: Minimum Concentration to Inhibit Growth of the Employed Bacteria C. The protocol:
as §1

Series [2] can be described thus: Pharmacokinetics, plasma concentration by bioassay after subcutaneous injection. It counts as in vivo. Conditions: mouse, sc, mice (ddY, male), 20 mg/kg subcutaneous; for AUC: read-out: AUCall (area under the concentration-time curve in plasma); for Cmax: read-out: Cmax (maximal plasma concentration); for half-life: read-out: T1/2 (half-life in plasma concentration) (converted). As for the experimental part: The compounds of the present invention compound (20 mg/kg) was subcutaneously injected to mice (n=3, ddY, male, purchased from SLC Japan). The plasma concentration of the compound was determined by a bioassay method at 5, 15, and 30 min, and 1, 1.5, and 2 hr after administration. In the Table, Cmax, T1/2, and AUCall indicate the maximal plasma concentration, half-life in plasma concentration, and area under the concentration-time curve in plasma of the compound, respectively.

The mark [3] stands for this setting: B: Streptococcus pneumoniae, agar plate dilution.
Setting [4] is: A: Staphylococcus aureus, agar plate dilution.
Setting [5] is: C: Haemophilis influenzae strain 9787 (β-lactamase producing), agar plate dilution.

`C[C@@H](O)[C@H]1C(=O)N2C(C(=O)[O-])=C(SC3CN(c4nc(C(N)=O)cs4)C3)[C@H](C)[C@H]12.[Na+]` [Example 3, (1R,5S,6S)-2-[1-(4-Carbamoyl-1,3-thiazol-2-yl)azetidin-3-yl]thio-6-[(R)-1-hydroxyethyl]-1-methylcarbapen-2-em-3-carboxylic acid sodium salt]: the MIC was determined as 0.2 µg/mL in the series on Streptococcus pneumoniae (setting [3]), 0.05 µg/mL in the series with Staphylococcus aureus (setting [4]) and 0.1 µg/mL in series [1] (setting [5]). The AUC in series [2] was 83900 ng·h/mL. The Cmax in series [2] came to 127 µg/mL. Further, the half-life in series [2] was 15 min.
For the compound `C[C@@H](O)[C@H]1C(=O)N2C(C(=O)[O-])=C(SC3CN(c4nc(C#N)cs4)C3)[C@H](C)[C@H]12.[Na+]` [Example 4, (1R,5S,6S)-2-[1-(4-Cyano-1,3-thiazol-2-yl)azetidin-3-yl]thio-6-[(R)-1-hydroxyethyl]-1-methylcarbapen-2-em-3-carboxylic acid sodium salt], the MIC in the series on Streptococcus pneumoniae (Streptococcus pneumoniae) is 0.2 µg/mL. In the series on Staphylococcus aureus (Staphylococcus aureus), the MIC stood at 0.05 µg/mL. Moreover, in series [1], the MIC worked out at 0.2 µg/mL. In addition, in series [2] (in vivo), the AUC came out at 165000 ng·h/mL, the Cmax came out at 157 µg/mL and the half-life was 61.2 min.
With `CNC(=O)c1csc(N2CC(SC3=C(C(=O)[O-])N4C(=O)[C@H]([C@@H](C)O)[C@H]4[C@H]3C)C2)n1.[Na+]` [Example 5, (1R,5S,6S)-2-[1-(4-N-Methylcarbamoyl-1,3-thiazol-2-yl)azetidin-3-yl]thio-6-[(R)-1-hydroxyethyl]-1-methylcarbapen-2-em-3-carboxylic acid sodium salt], the figures for the MIC (with Streptococcus pneumoniae (setting [3]); in the series with Staphylococcus aureus (setting [4]); in series [1] (setting [5])) were 0.2 µg/mL, 0.05 µg/mL and 0.2 µg/mL, respectively.
In the case of `C[C@@H](O)[C@H]1C(=O)N2C(C(=O)[O-])=C(SC3CN(c4nc(C(=O)N(C)C)cs4)C3)[C@H](C)[C@H]12.[Na+]` [Example 6, (1R,5S,6S)-2-[1-(4-N,N-Dimethylcarbamoyl-1,3-thiazol-2-yl)azetidin-3-yl]thio-6-[(R)-1-hydroxyethyl]-1-methylcarbapen-2-em-3-carboxylic acid sodium salt], the MIC in the series on Streptococcus pneumoniae (setting [3]) worked out at 0.2 µg/mL; in the series on Staphylococcus aureus (setting [4]), 0.05 µg/mL; in series [1] (setting [5]) it was 0.2 µg/mL.
Turning to `C[C@@H](O)[C@H]1C(=O)N2C(C(=O)[O-])=C(SC3CN(c4nc(C(=O)N5CCOCC5)cs4)C3)[C@H](C)[C@H]12.[Na+]` [Example 11, (1R,5S,6S)-2-[1-(4-Morpholinocarbonyl-1,3-thiazol-2-yl)azetidin-3-yl]thio-6-[(R)-1-hydroxyethyl]-1-methylcarbapen-2-em-3-carboxylic acid sodium salt], in series [2], the AUC worked out at 40400 ng·h/mL, the Cmax was 56.6 µg/mL and the half-life was 19.8 min.
As to `C[C@@H](O)[C@H]1C(=O)N2C(C(=O)[O-])=C(S[C@@H]3CCN(c4nc(C(N)=O)cs4)C3)[C@H](C)[C@H]12.[Na+]` [Example 19, (1R,5S,6S)-2-[(3R)-1-(4-Carbamoyl-1,3-thiazol-2-yl)pyrrolidin-3-yl]thio-6-[(R)-1-hydroxyethyl]-1-methylcarbapen-2-em-3-carboxylic acid sodium salt], the MIC amounted to 0.2 µg/mL in the series with Streptococcus pneumoniae (setting [3]), 0.05 µg/mL in the series on Staphylococcus aureus (setting [4]) and 0.1 µg/mL in series [1] (setting [5]).
As for `C[C@@H](O)[C@H]1C(=O)N2C(C(=O)[O-])=C(SC3CN(c4nc(C(N)=O)co4)C3)[C@H](C)[C@H]12.[Na+]` [Example 22, (1R,5S,6S)-2-[1-(4-Carbamoyl-1,3-oxazol-2-yl)azetidin-3-yl]thio-6-[(R)-1-hydroxyethyl]-1-methylcarbapen-2-em-3-carboxylic acid sodium salt], the MIC in the series on Streptococcus pneumoniae (setting [3]) was 0.2 µg/mL; with Staphylococcus aureus (setting [4]), 0.05 µg/mL; in series [1] (setting [5]), 0.1 µg/mL.
The matching figures for `C[C@@H](O)[C@H]1C(=O)N2C(C(=O)[O-])=C(SC3CN(c4nc(C(=O)N5CCC5)cs4)C3)[C@H](C)[C@H]12.[Na+]` [Example 24, (1R,5S,6S)-2-[1-(4-Azetidinocarbonyl-1,3-thiazol-2-yl)azetidin-3-yl]thio-6-[(R)-1-hydroxyethyl]-1-methylcarbapen-2-em-3-carboxylic acid sodium salt]: 0.025 µg/mL, not above 0.012 µg/mL and 0.05 µg/mL.
Consider `C[C@@H](O)[C@H]1C(=O)N2C(C(=O)[O-])=C(SC3CN(c4nc(C(=O)N5CCSCC5)cs4)C3)[C@H](C)[C@H]12.[Na+]` [Example 25, (1R,5S,6S)-2-[1-(4-Thiomorpholinocarbonyl-1,3-thiazol-2-yl)azetidin-3-yl]thio-6-[(R)-1-hydroxyethyl]-1-methylcarbapen-2-em-3-carboxylic acid sodium salt], for which the results for the MIC (in the series on Streptococcus pneumoniae (setting [3]); with Staphylococcus aureus (setting [4]); in series [1] (setting [5])) were 0.1 µg/mL, 0.025 µg/mL and 0.39 µg/mL, respectively.
Take `C[C@@H](O)[C@H]1C(=O)N2C(C(=O)O)=C(SC3CN(c4nc(C(=O)NC5CCNCC5)cs4)C3)[C@H](C)[C@H]12` [Example 56, (1R,5S,6S)-2-{1-[4-(piperidin-4-ylcarbamoyl)-1,3-thiazol-2-yl]azetidin-3-yl}thio-6-[(R)-1-hydroxyethyl]-1-methylcarbapen-2-em-3-carboxylic acid]: the results for the MIC (with Streptococcus pneumoniae (setting [3]); with Staphylococcus aureus (setting [4]); in series [1] (setting [5])) were 0.2 µg/mL (≈ 0.394 µM), 0.05 µg/mL (≈ 0.0985 µM) and 0.2 µg/mL (≈ 0.394 µM), respectively.
Take `C[C@@H](O)[C@H]1C(=O)N2C(C(=O)O)=C(SC3CN(c4nc(CNC(=O)c5ccccc5)cs4)C3)[C@H](C)[C@H]12` [Example 69, (1R,5S,6S)-2-{1-[4-(benzoylaminomethyl)-1,3-thiazol-2-yl]azetidin-3-yl}thio-6-[(R)-1-hydroxyethyl]-1-methylcarbapen-2-em-3-carboxylic acid sodium salt]: the MIC in the series with Streptococcus pneumoniae (setting [3]) is not above 0.012 µg/mL; with Staphylococcus aureus (setting [4]) it was not above 0.012 µg/mL; in series [1] (setting [5]) it was 0.78 µg/mL.
As to `C[C@@H](O)[C@H]1C(=O)N2C(C(=O)O)=C(SC3CN(c4nc(CNC(=O)c5cccs5)cs4)C3)[C@H](C)[C@H]12` [Example 71, (1R,5S,6S)-2-(1-{4-[(Thiophene-2-carbonylamino)methyl]-1,3-thiazol-2-yl}azetidin-3-yl)thio-6-[(R)-1-hydroxyethyl]-1-methylcarbapen-2-em-3-carboxylic acid sodium salt], the MIC was not above 0.012 µg/mL in the series on Streptococcus pneumoniae (setting [3]), not above 0.012 µg/mL in the series with Staphylococcus aureus (setting [4]) and 0.39 µg/mL in series [1] (setting [5]).
For `C[C@@H](O)[C@H]1C(=O)N2C(C(=O)O)=C(SC3CN(c4nc(CNC(=O)c5ccco5)cs4)C3)[C@H](C)[C@H]12` [Example 72, (1R,5S,6S)-2-(1-{4-[(furan-2-carbonylamino)methyl]-1,3-thiazol-2-yl}azetidin-3-yl)thio-6-[(R)-1-hydroxyethyl]-1-methylcarbapen-2-em-3-carboxylic acid sodium salt], the MIC is 0.025 µg/mL in the series with Streptococcus pneumoniae (setting [3]), not above 0.012 µg/mL with Staphylococcus aureus (setting [4]) and 0.2 µg/mL in series [1] (setting [5]).
For `C[C@@H](O)[C@H]1C(=O)N2C(C(=O)O)=C(SC3CN(c4nc(C(=O)N[C@H]5CCNC5)co4)C3)[C@H](C)[C@H]12` [Example 80, (1R,5S,6S)-2-{1-[4-((3S)-pyrrolidin-3-ylcarbamoyl)-1,3-oxazol-2-yl]azetidin-3-yl}thio-6-[(R)-1-hydroxyethyl]-1-methylcarbapen-2-em-3-carboxylic acid], the MIC is 0.2 µg/mL (≈ 0.419 µM) in the series on Streptococcus pneumoniae (setting [3]), 0.025 µg/mL (≈ 0.0524 µM) with Staphylococcus aureus (setting [4]) and 0.39 µg/mL (≈ 0.817 µM) in series [1] (setting [5]).
For the compound `C[C@@H](O)[C@H]1C(=O)N2C(C(=O)O)=C(SC3CN(c4nc(C(=O)N[C@@H]5CCNC5)co4)C3)[C@H](C)[C@H]12` [Example 81, (1R,5S,6S)-2-{1-[4-((3R)-pyrrolidin-3-ylcarbamoyl)-1,3-oxazol-2-yl]azetidin-3-yl}thio-6-[(R)-1-hydroxyethyl]-1-methylcarbapen-2-em-3-carboxylic acid], the MIC in the series on Streptococcus pneumoniae (setting [3]) is 0.2 µg/mL (≈ 0.419 µM); with Staphylococcus aureus (setting [4]) it was not above 0.012 µg/mL; in series [1] (setting [5]), 0.39 µg/mL (≈ 0.817 µM).

The values above are taken from patent US7001897B2, “1-methylcarbapenem derivatives” (Sankyo Company, Limited, priority 2000, dated 2006).
